Measured values from patent US20160106102A1, “KNOWN AND NEW HETEROCYCLIC COMPOUNDS AS PEST CONTROL AGENTS” (BAYER CROPSCIENCE AKTIENGESELLSCHAFT, priority 2013, published 2016).

test system: not listed separately; assay: log P determination by LC-MS in the acidic range; type: physicochemical; conditions: LC-MS in the acidic range
Description: The LC-MS determination in the acidic range is effected at pH 2.7 using 0.1% aqueous formic acid and acetonitrile (contains 0.1% formic acid) as eluents, linear gradient from 10% acetonitrile to 95% acetonitrile. Alternatively, the determination is effected in the acidic range at pH 2.3 using 0.1% aqueous phosphoric acid and acetonitrile as eluents; linear gradient from 10% acetonitrile to 95% acetonitrile.

SMILES	log P (acid)
Cn1nc(NC(=O)c2cccnc2)c(Br)c1OC(F)F [Compound I-1-47]	1.13
CCOC(=O)Cn1nc(NC(=O)c2cncc(F)c2)cc1C [Compound I-1-59]	1.53
COc1ccc(C(=O)Nc2cc(C)n(Cc3cccc(F)c3)n2)cn1 [Compound I-1-94]	2.51
Cc1cc(NC(=O)c2cnc(Cl)c(Cl)c2)nn1Cc1cccc(F)c1 [Compound I-1-96]	3.26
Cc1cc(NC(=O)c2cnc(Cl)c(Cl)c2)nn1Cc1ccc(F)cc1 [Compound I-1-97]	3.23
Cc1cc(NC(=O)c2ccc(Cl)nc2)nn1Cc1ccccc1 [Compound I-1-98]	2.48
Cc1cc(NC(=O)c2cncc(Br)c2)nn1Cc1ccccc1F [Compound I-1-101]	2.69
Cc1ccc(C(=O)Nc2cc(C)n(Cc3ccccc3F)n2)cn1 [Compound I-1-102]	1.73
Cc1cc(NC(=O)c2cnc(Cl)c(Cl)c2)nn1Cc1ccccc1F [Compound I-1-103]	3.28
COc1ccc(C(=O)Nc2cc(C)n(Cc3ccccc3F)n2)cn1 [Compound I-1-105]	2.52
Cc1cc(NC(=O)c2ccc(Cl)nc2)nn1Cc1cccc(F)c1 [Compound I-1-106]	2.6
Cc1cc(NC(=O)c2cncc(Br)c2)nn1Cc1cccc(F)c1 [Compound I-1-107]	2.71
Cc1ccc(C(=O)Nc2cc(C)n(Cc3ccc(F)cc3)n2)cn1 [Compound I-1-109]	1.76
COc1ccc(C(=O)Nc2cc(C)n(Cc3ccc(F)cc3)n2)cn1 [Compound I-1-110]	2.47
Cn1nc(NC(=O)c2cncc(F)c2)c(Br)c1OC(F)F [Compound I-1-113]	1.67
Cc1cc(NC(=O)c2cncc(F)c2)nn1CC(=O)O [Compound I-1-114]	0.87
Cc1cc(NC(=O)c2cccnc2)nn1CC(=O)O [Compound I-1-115]	0.09

More lines, now with the values ahead:

log P (acid)	SMILES
1.42	N#Cc1ccccc1-n1ccc(NC(=O)c2cccnc2)n1 [Compound I-1-117]
1.92	Cc1cc(NC(=O)c2cccnc2)nn1C(=O)c1cccc(Cl)c1 [Compound I-1-127]
0.58	O=C(Nc1nn(Cc2ncccn2)cc1Cl)c1cccnc1 [Compound I-1-137]
0.06	Cn1nc(NC(=O)c2cccnc2)c(C#N)c1[S+](C)[O-] (stereo not drawn) [Compound I-1-141]
1.33	Cc1cc(NC(=O)c2ccnnc2)nn1Cn1nc(C2CC2)n(C2CC2)c1=O [Compound I-1-150]
0.92	Cc1cc(NC(=O)c2ccnnc2)nn1Cn1nc(C)n(C2CC2)c1=O [Compound I-1-151]
1.17	COc1nn(Cn2nc(NC(=O)c3ccnnc3)cc2C)c(=O)n1C1CC1 [Compound I-1-152]
2.02	Cc1ccc(-n2nc(NC(=O)c3cccnc3)cc2C)cc1 [Compound I-1-193]
1.34	COc1ccc(-n2nc(NC(=O)c3cccnc3)cc2C)cc1 [Compound I-1-200]
1.25	CSc1c(Cl)c(NC(=O)c2cccnc2)nn1C [Compound I-1-201]
2.59	Cc1cc(NC(=O)c2cccnc2)nn1-c1ccc(Cl)c(Cl)c1 [Compound I-1-206]
1.51	Cn1nc(NC(=O)c2cncc(F)c2)cc1C(F)F [Compound I-1-222]
2.19	Cc1cc(NC(=O)c2cccnc2)nn1-c1ccccn1 [Compound I-1-230]
0.91	Cc1cc(NC(=O)c2ccnnc2)nn1Cn1cccn1 [Compound I-1-240]
1.53	Cc1cc(C)nc(-n2nc(NC(=O)c3ccnnc3)cc2C)n1 [Compound I-1-248]
1.2	Cc1cc(NC(=O)c2ccnnc2)nn1CC(F)(F)F [Compound I-1-250]
1.14	Cc1cc(C)nc(Cn2nc(NC(=O)c3ccnnc3)cc2C)n1 [Compound I-1-251]
1.5	COc1cc(OC)nc(Cn2nc(NC(=O)c3ccnnc3)cc2C)n1 [Compound I-1-252]
0.88	Cc1ccnc(Cn2nc(NC(=O)c3ccnnc3)cc2C)n1 [Compound I-1-253]
1.33	Cc1cc(NC(=O)c2ccnnc2)nn1Cc1ncccc1Cl [Compound I-1-254]
1.73	Cc1cc(NC(=O)c2ccnnc2)nn1Cn1ccc(C(F)(F)F)n1 [Compound I-1-255]
1.1	Cc1cnn(Cn2nc(NC(=O)c3ccnnc3)cc2C)c1 [Compound I-1-256]
1.07	CCCNS(=O)(=O)n1nc(NC(=O)c2cccnc2)cc1C [Compound I-1-258]
1.6	COc1ccc(-n2ccc(NC(=O)c3cccnc3)n2)cc1 [Compound I-1-271]
0.79	CCOC(=O)c1cn(Cc2ccccc2)nc1NC(=O)c1cccnc1 [Compound I-1-272]
1.16	O=C(Nc1ccn(-c2nccs2)n1)c1cccnc1 [Compound I-1-273]
1.19	Cn1nc(NC(=O)c2cccnc2)c(Cl)c1OC(F)F [Compound I-1-275]
2.33	Cc1nn(-c2ccccc2)nc1Cn1nc(NC(=O)c2cccnc2)cc1C [Compound I-1-303]
2.89	Cc1cc(F)c(Cn2nc(NC(=O)c3cccnc3)cc2C)cc1SCC(F)(F)F [Compound I-1-337]
2.57	Cc1cc(N(Cc2ccc3nsnc3c2)C(=O)c2cccnc2)nn1Cc1ccc2nsnc2c1 [Compound I-1-343]

same assay, conditions: Table 2, compounds of the formula (I-2); acidic range pH 2.7 or pH 2.3

log P (acid)	SMILES
−0.05	Cc1nc(NC(=O)c2cccnc2)nn1Cc1ncccn1 [Compound I-2-2]
2.02	O=C(Nc1ncn(-c2c(Cl)cc(S(=O)(=O)C(F)(F)F)cc2Cl)n1)c1cccnc1 [Compound I-2-3]

same assay, conditions: pH 2.7, LC-MS in the acidic range; read-out: log P (acid)

chromatographic logP	SMILES
1.56	Cn1nc(NC(=O)c2cncc(F)c2)cc1OC(F)F [Compound I-1-112, N-[5-(Difluoromethoxy)-1-methyl-1H-pyrazol-3-yl]-5-fluoronicotinamide]
2.64	O=C(Nc1ccn(Cc2ncc(C(F)(F)F)cc2Cl)n1)c1ccc(Cl)nc1 [Compound I-1-118, 6-Chloro-N-(1-{[3-chloro-5-(trifluoromethyl)pyridin-2-yl]methyl}-1H-pyrazol-3-yl)nicotinamide]
1.65	Cc1cc(NC(=O)c2cccnc2)nn1C(=O)C1CC1 [Compound I-1-121, N-[1-(Cyclopropylcarbonyl)-5-methyl-1H-pyrazol-3-yl]nicotinamide]
1.5	COC(=O)c1cc(NC(=O)c2cncc(F)c2)nn1C [Compound I-1-134, Methyl 3-{[(5-fluoropyridin-3-yl)carbonyl]amino}-1-methyl-1H-pyrazole-5-carboxylate]

same assay, conditions: pH 2.7, values given in the synthesis examples and NMR lists; read-out: HPLC-MS: log P

SMILES	chromatographic logP
CCSCn1nc([N+](=O)[O-])cc1C [1-[(Ethylsulphanyl)methyl]-5-methyl-3-nitro-1H-pyrazole]	2.21
Cc1c[nH]nc1N1C(=O)c2ccccc2C1=O [2-(4-Methyl-1H-pyrazol-3-yl)-1H-isoindole-1,3(2H)-dione]	1.34
O=C1c2ccccc2C(=O)N1c1cc(Br)[nH]n1 [2-(5-Bromo-1H-pyrazol-3-yl)-1H-isoindole-1,3(2H)-dione]	1.83
Cc1cc([N+](=O)[O-])nn1-c1ncccn1 [2-(5-Methyl-3-nitro-1H-pyrazol-1-yl)pyrimidine]	1.41
Cc1cn(Cc2ncccn2)nc1N1C(=O)c2ccccc2C1=O [2-[4-Methyl-1-(pyrimidin-2-ylmethyl)-1H-pyrazol-3-yl]-1H-isoindole-1,3(2H)-dione]	1.58
O=C1c2ccccc2C(=O)N1c1cc(Br)n(Cc2ncccn2)n1 [2-[5-Bromo-1-(pyrimidin-2-ylmethyl)-1H-pyrazol-3-yl]-1H-isoindole-1,3(2H)-dione]	2.02
O=[N+]([O-])c1ccn(Cc2ncc(C(F)(F)F)cc2Cl)n1 [3-Chloro-2-[(3-nitro-1H-pyrazol-1-yl)methyl]-5-(trifluoromethyl)pyridine]	2.67
Cc1cn(Cc2ncccn2)nc1N [4-Methyl-1-(pyrimidin-2-ylmethyl)-1H-pyrazole-3-amine]	-0.22
Cc1cc(N)nn1-c1ncccn1 [5-Methyl-1-(pyrimidin-2-yl)-1H-pyrazole-3-amine]	0.5
Cc1cc(C(=O)O)nn1Cc1ncccn1 [5-Methyl-1-(pyrimidin-2-ylmethyl)-1H-pyrazole-3-carboxylic acid]	0.45
Cc1nn(-c2ccccn2)nc1N [5-Methyl-2-(pyridin-2-yl)-2H-1,2,3-triazol-4-amine]	0.74
Cn1nc(NC(=O)c2cncc(F)c2)cc1OC(F)F [Compound I-1-112, N-[5-(Difluoromethoxy)-1-methyl-1H-pyrazol-3-yl]-5-fluoronicotinamide]	1.56

Further lines, results first:

chromatographic logP	SMILES
2.64	O=C(Nc1ccn(Cc2ncc(C(F)(F)F)cc2Cl)n1)c1ccc(Cl)nc1 [Compound I-1-118, 6-Chloro-N-(1-{[3-chloro-5-(trifluoromethyl)pyridin-2-yl]methyl}-1H-pyrazol-3-yl)nicotinamide]
1.65	Cc1cc(NC(=O)c2cccnc2)nn1C(=O)C1CC1 [Compound I-1-121, N-[1-(Cyclopropylcarbonyl)-5-methyl-1H-pyrazol-3-yl]nicotinamide]
1.5	COC(=O)c1cc(NC(=O)c2cncc(F)c2)nn1C [Compound I-1-134, Methyl 3-{[(5-fluoropyridin-3-yl)carbonyl]amino}-1-methyl-1H-pyrazole-5-carboxylate]

test system: Myzus persicae; assay: Myzus persicae - sachet test; type: in vivo; conditions: application rate of 6 ppm in nutrient medium; 100% = all animals killed
Experimental: Myzus persicae—Sachet Test Solvent: 2% by vol. of N-methylpyrrolidone • 2% by vol. of diacetone alcohol To produce an appropriate active ingredient formulation, the active ingredient is mixed with the specified amounts of solvent and the concentrate is diluted to the desired concentration with water. The active ingredient formulation is added to a specific nutrient medium in the desired concentration by pipetting. This plate is sealed and combined with a further plate populated with the green peach aphid (Myzus persicae). After the desired time, the kill in % is determined. 100% means that all the animals have been killed; 0% means that no animals have been killed.

SMILES	efficacy (kill in %)
COC(=O)CCCn1nc(NC(=O)c2cccnc2)cc1C [Compound I-1-67]	100%
O=C(Nc1ccn(-c2ccc(F)cc2F)n1)c1cccnc1 [Compound I-1-85]	100%

same assay, conditions: application rate of 30 ppm in nutrient medium; 100% = all animals killed

SMILES	efficacy (kill in %)
COC(=O)CCCn1nc(NC(=O)c2cccnc2)cc1C [Compound I-1-67]	100%
CCOC(=O)Cn1ccc(NC(=O)c2cccnc2)n1 [Compound I-1-69]	100%
O=C(Nc1ccn(Cc2ccc(Cl)cc2Cl)n1)c1cccnc1 [Compound I-1-82]	100%
O=C(Nc1ccn(-c2ccc(F)cc2F)n1)c1cccnc1 [Compound I-1-85]	100%
CCn1nnc(NC(=O)c2cccnc2)n1 [Compound I-4-1]	100%
